# Measurements taken from patent US9145354B2, “Pharmaceutical compounds” (priority 2011, dated 2015).
# pIC50: −log10 of the molar value. Like-named read-outs stand apart in the source and are kept apart here.
# Molecular target: full length NS3/4a (Hepatitis C virus genotype 1b (isolate BK) (HCV), UniProt P26663)
# Assay: NS3 Protease Assay (Example A), FRET-based
# Format: biochemical
# Details: for pIC50: read-out: IC50 against the protease activity of the full length NS3/4a; for IC50: HCV NS3 protease assay, full length NS3/4a, read-out: Assay A IC50 (μM) average
# Method in brief: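 Full-length NS3/4a, made in-house, with an NS4A/B-derived peptide substrate carrying QXL520 quencher and 5-FAMsp fluorophore. Buffer 50 mM Tris pH8, 20 mM DTT, 1% CHAPS, 10% glycerol, 5% DMSO. Fluorescence followed 30 min at room temperature; IC50 from initial rates of replicate curves.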
# [1] = stated as IC50 less than 30 μM or at least 40% inhibition at a concentration of 100 μM
# Chain of full length NS3/4a (P26663 1027-1657): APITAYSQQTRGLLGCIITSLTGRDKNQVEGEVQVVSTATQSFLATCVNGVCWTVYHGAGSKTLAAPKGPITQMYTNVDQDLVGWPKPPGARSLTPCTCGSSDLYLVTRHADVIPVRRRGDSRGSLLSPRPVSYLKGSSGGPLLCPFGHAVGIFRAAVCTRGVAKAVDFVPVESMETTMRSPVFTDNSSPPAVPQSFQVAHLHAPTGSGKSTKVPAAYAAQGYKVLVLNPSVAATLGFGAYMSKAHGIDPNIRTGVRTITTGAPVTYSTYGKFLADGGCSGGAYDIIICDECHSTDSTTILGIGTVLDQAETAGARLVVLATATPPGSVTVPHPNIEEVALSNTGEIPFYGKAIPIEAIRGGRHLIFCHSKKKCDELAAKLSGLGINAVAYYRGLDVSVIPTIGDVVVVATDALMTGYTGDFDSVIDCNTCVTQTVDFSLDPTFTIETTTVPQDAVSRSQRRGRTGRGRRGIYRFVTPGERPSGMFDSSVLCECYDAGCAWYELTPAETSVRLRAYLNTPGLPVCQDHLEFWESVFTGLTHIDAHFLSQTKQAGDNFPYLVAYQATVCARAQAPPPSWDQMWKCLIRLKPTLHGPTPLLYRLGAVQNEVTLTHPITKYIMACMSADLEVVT
SMILES,IC50 [µM],pIC50,also measured
"CC[C@@H](N[C@@H](C)CC(N)=O)c1ccc(Cl)c(C(=O)c2ccc(C(N)=O)cc2)c1F [Example 146, 4-({3-[(1R)-1-{[(2S)-1-Carbamoylpropan-2-yl]amino}propyl]-6-chloro-2-fluorophenyl}carbonyl)-benzamide]",,,inhibition at 0.3 µM (@ 0.3 uM): 56%
"CC[C@@H](N[C@H](C)CC(N)=O)c1ccc(Cl)c(C(=O)c2ccc(=O)[nH]c2)c1F [Example 148, (3R)-3-{[(1R)-1-{4-chloro-2-fluoro-3-[(6-oxo-1,6-dihydropyridin-3-yl)carbonyl]-phenyl}propyl]amino}-butanamide]",,,inhibition at 10 µM: 43%; pIC50 [1]: > 4.52
"CC[C@@H](N[C@H](C)CC(N)=O)c1ccc(C)c(C(=O)c2ccccc2)c1F [Example 151, (3R)-3-{[(1R)-1-(3-benzoyl-2-fluoro-4-methylphenyl)propyl]amino}butanamide]",0.49,,
"CC[C@@H](N[C@H](C)CC(N)=O)c1ccc(OC)c(C(=O)c2ccccc2)c1F [Example 153, (3R)-3-{[(1R)-1-(3-benzoyl-2-fluoro-4-methoxyphenyl)propyl]amino}butanamide]",0.49,,
"C[C@H](CC(N)=O)N[C@@H](c1ccc(Cl)c(C(=O)c2ccc(N)nc2)c1F)C1CC1 [Example 155, (3R)-3-{[(R)-{3-[(6-aminopyridin-3-yl)carbonyl]-4-chloro-2-fluorophenyl}(cyclo-propyl)methyl]amino}-butanamide]",1,5.30 to 6.00,
"CC[C@@H](N[C@H](C)CC(N)=O)c1ccc(Cl)c(C(=O)c2ccc(N)cn2)c1F [Example 156, (3R)-3-{[(1R)-1-{3-[(5-aminopyridin-2-yl)carbonyl]-4-chloro-2-fluorophenyl}propyl]-amino}butanamide]",2,5.30 to 6.00,
"CC[C@@H](N[C@H](C)CC(N)=O)c1ccc(F)c(C(=O)c2ccccc2)c1F [Example 158, (3R)-3-{[(1R)-1-(3-benzoyl-2,4-difluorophenyl)propyl]-amino}butanamide]",0.35,,
"CC[C@@H](N[C@H](C)CC(N)=O)c1ccc(Cl)c(C(=O)c2ccc(-n3cc(CO)cn3)nc2)c1F [Example 160, (3R)-3-{[(1R)-1-[4-chloro-2-fluoro-3-({6-[4-(hydroxymethyl)-1H-pyrazol-1-yl]pyridin-3-yl}carbonyl)phenyl]-propyl]amino}-butanamide]",4.2,5.30 to 6.00,
"CC[C@@H](NCCO)c1ccc(Cl)c(C(=O)c2cccnc2)c1F [Example 163, 2-{[(1R)-1-{4-Chloro-2-fluoro-3-[(pyridin-3-yl)carbonyl]phenyl}propyl]amino}ethan-1-ol]",,,inhibition at 10 µM: 62%; pIC50 [1]: > 4.52
"CC[C@@H](NCC(N)=O)c1ccc(Cl)c(C(=O)c2cccnc2)c1F [Example 164, 2-{[(1R)-1-{4-Chloro-2-fluoro-3-[(pyridin-3-yl)carbonyl]phenyl}propyl]amino}-acetamide]",,,inhibition at 10 µM: 37%
"CC[C@@H](N[C@@H](C)CO)c1ccc(Cl)c(C(=O)c2cccnc2)c1F [Example 165, (2S)-2-{[(1R)-1-{4-chloro-2-fluoro-3-[(pyridin-3-yl)carbonyl]phenyl}-propyl]amino}-propan-1-ol]",1.4,5.30 to 6.00,
"CC[C@@H](N[C@H](C)CO)c1ccc(Cl)c(C(=O)c2cccnc2)c1F [Example 166, (2R)-2-{[(1R)-1-{4-chloro-2-fluoro-3-[(pyridin-3-yl)carbonyl}phenyI}-propyl]amino}propan-1-ol]",6.3,,pIC50 [1]: > 4.52
"CC[C@@H](N[C@H](C)C(N)=O)c1ccc(Cl)c(C(=O)c2cccnc2)c1F [Example 169, (2R)-2-{[(1R)-1-{4-chloro-2-fluoro-3-[(pyridin-3-yl)carbonyl]phenyI}-propyl]amino}propanamide]",,,Assay A % inhibition average (@ 100 uM): 53% @ 100 uM; pIC50 [1]: > 4.52
"CC[C@@H](N[C@@H](C)C(N)=O)c1ccc(Cl)c(C(=O)c2cccnc2)c1F [Example 170, (2S)-2-{[(1R)-1-{4-chloro-2-fluoro-3-[(pyridin-3-yl)carbonyl]phenyl}-propyl]amino}-propanamide]",,5.30 to 6.00,inhibition at 3 µM (@ 3 uM): 55%
